Tests used:
[1] = system: Human immunodeficiency virus 1; test: Antiviral activity against HIV-1 IIIB infected in human MT4 cells assessed as reduction in virus induced cytopathic effect incubated for 5 days by MTT assay; assay type: functional, organism-based; settings: Human immunodeficiency virus 1, IIIB, MT4, 120 h
[2] = system: Human immunodeficiency virus 1; test: Antiviral activity against HIV-1 RES056 infected in human MT4 cells assessed as reduction in virus induced cytopathic effect incubated for 5 days by MTT assay; assay type: functional, organism-based; settings: Human immunodeficiency virus 1, RES056, MT4, 120 h
[3] = Cytotoxicity against human MT4 cells assessed as cell growth inhibition incubated for 5 days by MTT assay; assay type: toxicity, cell-based; settings: time 5 day
[4] = Selectivity index, ratio of CC50 for cytotoxicity against human MT4 cells assessed as reduction in cell viability to EC50 for antiviral activity against HIV-1 IIIB infected in human MT4 cells assessed as reduction in virus induced cytopathic effect; assay type: toxicity, cell-based; settings: read-out: Ratio CC50/EC50
[5] = system: Human immunodeficiency virus 1; test: Antiviral activity against NNRTI-resistant HIV-1 harboring L100I mutant infected in human MT4 cells assessed as virus-induced cytopathicity incubated for 5 days by MTT assay; assay type: functional, organism-based; settings: Human immunodeficiency virus 1, MT4, 120 h
[6] = system: Human immunodeficiency virus 1; test: Antiviral activity against NNRTI-resistant HIV-1 harboring K103N mutant infected in human MT4 cells assessed as virus-induced cytopathicity incubated for 5 days by MTT assay; assay type: functional, organism-based; settings: Human immunodeficiency virus 1, MT4, 120 h
[7] = system: Human immunodeficiency virus 1; test: Antiviral activity against NNRTI-resistant HIV-1 harboring Y181C mutant infected in human MT4 cells assessed as virus-induced cytopathicity incubated for 5 days by MTT assay; assay type: functional, organism-based; settings: Human immunodeficiency virus 1, MT4, 120 h
[8] = system: Human immunodeficiency virus 1; test: Antiviral activity against NNRTI-resistant HIV-1 harboring Y188L mutant infected in human MT4 cells assessed as virus-induced cytopathicity incubated for 5 days by MTT assay; assay type: functional, organism-based; settings: Human immunodeficiency virus 1, MT4, 120 h
[9] = system: Human immunodeficiency virus 1; test: Antiviral activity against NNRTI-resistant HIV-1 harboring E138K mutant infected in human MT4 cells assessed as virus-induced cytopathicity incubated for 5 days by MTT assay; assay type: functional, organism-based; settings: Human immunodeficiency virus 1, MT4, 120 h
[10] = system: Human immunodeficiency virus 1; test: Antiviral activity against NNRTI-resistant HIV-1 harboring F227L/V106A double mutant infected in human MT4 cells assessed as virus-induced cytopathicity incubated for 5 days by MTT assay; assay type: functional, organism-based; settings: Human immunodeficiency virus 1, MT4, 120 h
[11] = Selectivity index, ratio of CC50 for cytotoxicity against human MT4 cells assessed as reduction in cell viability to EC50 for antiviral activity against NNRTI-resistant HIV-1 harboring L100I mutant infected in human MT4 cells; assay type: toxicity, cell-based; settings: read-out: Ratio CC50/EC50
[12] = Selectivity index, ratio of CC50 for cytotoxicity against human MT4 cells assessed as reduction in cell viability to EC50 for antiviral activity against NNRTI-resistant HIV-1 harboring K103N mutant infected in human MT4 cells; assay type: toxicity, cell-based; settings: read-out: Ratio CC50/EC50
[13] = Selectivity index, ratio of CC50 for cytotoxicity against human MT4 cells assessed as reduction in cell viability to EC50 for antiviral activity against NNRTI-resistant HIV-1 harboring Y181C mutant infected in human MT4 cells; assay type: toxicity, cell-based; settings: read-out: Ratio CC50/EC50
[14] = Selectivity index, ratio of CC50 for cytotoxicity against human MT4 cells assessed as reduction in cell viability to EC50 for antiviral activity against NNRTI-resistant HIV-1 harboring Y188L mutant infected in human MT4 cells; assay type: toxicity, cell-based; settings: read-out: Ratio CC50/EC50
[15] = Selectivity index, ratio of CC50 for cytotoxicity against human MT4 cells assessed as reduction in cell viability to EC50 for antiviral activity against NNRTI-resistant HIV-1 harboring E138K mutant infected in human MT4 cells; assay type: toxicity, cell-based; settings: read-out: Ratio CC50/EC50
[16] = Selectivity index, ratio of CC50 for cytotoxicity against human MT4 cells assessed as reduction in cell viability to EC50 for antiviral activity against NNRTI-resistant HIV-1 harboring F227L/V106A double mutant infected in human MT4 cells; assay type: toxicity, cell-based; settings: read-out: Ratio CC50/EC50
[17] = Selectivity index, ratio of CC50 for cytotoxicity against human MT4 cells assessed as reduction in cell viability to EC50 for antiviral activity against HIV-1 RES056 infected in human MT4 cells assessed as reduction in virus induced cytopathic effect; assay type: toxicity, cell-based; settings: read-out: Ratio CC50/EC50
[18] = (§1) Fold resistance, ratio of EC50 for antiviral activity against NNRTI-resistant HIV-1 harboring L100I mutant infected in human MT4 cells assessed as virus-induced cytopathicity to EC50 for antiviral activity against HIV-1 IIIB infected in human MT4 cells assessed as reduction in virus induced cytopathic effect; assay type: functional
[19] = as §1, with “K103N” for “L100I”; assay type: functional
[20] = as §1, with “Y181C” for “L100I”; assay type: functional
[21] = as §1, with “Y188L” for “L100I”; assay type: functional
[22] = as §1, with “E138K” for “L100I”; assay type: functional
[23] = as §1, with “F227L/V106A double” for “L100I”; assay type: functional
[24] = as §1, with “F227L/V106A double” for “L100I”, “RES056” for “IIIB”; assay type: functional
[25] = molecular target: Human immunodeficiency virus type 1 reverse transcriptase (Human immunodeficiency virus 1, UniProt Q72547); test: Inhibition of wild type HIV-1 reverse transcriptase assessed as reduction of biotin-dUTP incorporation into […] using ABTS as substrate incubated for 1 hrs by ELISA analysis

| Compound | EC50 [1] [nM] | EC50 [2] [µM] | CC50 at 120 h [3] [µM] | selectivity ratio [4] | EC50 [5] [nM] | EC50 [6] [nM] | EC50 [7] [nM] | EC50 [8] [nM] | EC50 [9] [nM] | EC50 [10] [nM] | selectivity ratio [11] | selectivity ratio [12] | selectivity ratio [13] | selectivity ratio [14] | selectivity ratio [15] | selectivity ratio [16] | selectivity ratio [17] | Ratio EC50 [18] | Ratio EC50 [19] | Ratio EC50 [20] | further results |
| --- | --- | --- | --- | --- | --- | --- | --- | --- | --- | --- | --- | --- | --- | --- | --- | --- | --- | --- | --- | --- | --- |
| Cc1cc(C#N)cc(C)c1Oc1nc(NC2CCN(Cc3ccc(B(O)O)cc3)CC2)ncc1C(N)=O | 42 | 6.63 | > 250 | > 5990 | 133 | 45 | 159 | 209 | 165 | 1090 | > 187 | > 5550 | > 1570 | > 1190 | > 1520 | > 229 | > 38 | 3.2 | 1.1 | 3.8 | Ratio EC50 [21]: 5; Ratio EC50 [22]: 4; Ratio EC50 [23]: 26.2; Ratio EC50 [24]: 159.1; IC50 [25]: 1040 nM |
| Cc1cc(C#N)cc(C)c1Oc1nc(NC2CCN(c3ccc(N)cc3)CC2)ncc1C(N)=O | 42 | 4 | 183 | 4420 | 275 | 45 | 252 | 255 | 208 | 1080 | 668 | 4120 | 726 | 718 | 881 | 169 | 46 | 6.6 | 1.1 | 6.1 | Ratio EC50 [21]: 6.2; Ratio EC50 [22]: 5; Ratio EC50 [23]: 26.1; Ratio EC50 [24]: 96.4; IC50 [25]: 242 nM |
| Cc1cc(C#N)cc(C)c1Oc1nc(Nc2ccc(CN3CCN(S(N)(=O)=O)CC3)cc2)ncc1C(N)=O | 1550 | > 173 | 173 | 112 |  |  |  |  |  |  |  |  |  |  |  |  |  |  |  |  |  |
| Cc1cc(C#N)cc(C)c1Oc1nc(NC2CCN(Cc3ccc(C(N)=O)cc3)CC2)ncc1C(N)=O | 45 | 17.8 | > 250 | > 5560 | 73 | 45 | 286 | 771 | 380 | 4520 | > 344 | > 5580 | > 876 | > 324 | > 659 | > 55 | > 14 | 1.6 | 1 | 6.3 | Ratio EC50 [21]: 17.1; Ratio EC50 [22]: 8.4; Ratio EC50 [23]: 100.3; Ratio EC50 [24]: 394.1; IC50 [25]: 158 nM |
| Cc1cc(C#N)cc(C)c1Oc1nc(NC2CCN(c3cccc(C#N)c3)CC2)ncc1C(N)=O | 276 | 48.1 | 111 | 402 |  |  |  |  |  |  |  |  |  |  |  |  |  |  |  |  |  |
| Cc1cc(C#N)cc(C)c1Oc1nc(Nc2ccc(CN3CCN(S(C)(=O)=O)CC3)cc2)ncc1C(N)=O | 1770 | > 233 | > 233 | > 132 |  |  |  |  |  |  |  |  |  |  |  |  |  |  |  |  |  |
| Cc1cc(C#N)cc(C)c1Oc1nc(Nc2ccc(CN3CCNCC3)cc2)ncc1C(N)=O | 13400 | > 273 | > 273 | > 20 |  |  |  |  |  |  |  |  |  |  |  |  |  |  |  |  |  |
| Cc1cc(C#N)cc(C)c1Oc1nc(Nc2ccc(C#N)c(F)c2)ncc1C(N)=O | 11 | 7.19 | 34.9 | 3230 | 50 | 20 | 180 | 101 | 51 | 3110 | 698 | 1770 | 194 | 345 | 681 | 11 | 5 | 4.6 | 1.8 | 16.6 | Ratio EC50 [21]: 9.4; Ratio EC50 [22]: 4.7; Ratio EC50 [23]: 287.6; Ratio EC50 [24]: 663.7; IC50 [25]: 170 nM |

From ChEMBL document CHEMBL5331067, “Disubstituted pyrimidine-5-carboxamide derivatives as novel HIV-1 NNRTIs: Crystallographic overlay-based molecular design, synthesis, and biological evaluation” (Eur J Med Chem, 2023)
